Among the data in ChEMBL document CHEMBL5727501, “Bicyclic compounds and their use as antibacterial agents and β-lactamase inhibitors” (2020) are IC50 values, retold here.

pIC50: −log10 of the molar value.

The term pIC50 denotes −log10 of the IC50, conventionally taken in molar units. The low end stands for a high IC50, the high end for a low IC50.

Assay [1] is described as follows: (§1) Test for beta-lactamase Inhibitory Activity: he inhibitory activities of present compounds against various enzymes were measured by spectrophotometric assay using […] and using nitrocefin as a substrate [J. Antimicrob. Chemother., 28, pp 775-776 (1991)]. The concentration of inhibitor (IC50) which inhibits by 50% the reaction of hydrolysis of nitrocefin by the enzyme is determined.

Assay [2] is described as follows: as §1. The source holds these as a separate data set.

In the case of `CC(=O)NNC(=O)[C@@H]1CC[C@@H]2CN1C(=O)N2OS(=O)(=O)O`, the results for the pIC50 in assay [1] and in assay [2] were 8.10 and 7.04, respectively.
